# Results published in US20180022780A1, “STABILIZATION ADRENOMEDULLIN DERIVATIVES AND USE THEREOF” (priority 2014, published 2018).
# Bridge positions count the residues as written; N and C are the ends. Square brackets hold non-standard residues; d marks the D form. Peptide text beside a SMILES is read from it. * marks the point of attachment. Palmitoyl = CCCCCCCCCCCCCCCC(=O)*; Dab = NCC[C@H](N)C(=O)O; Dap = NC[C@H](N)C(=O)O
# Biological target: T1, CLR fused to EYFP and RAMP2 fused to ECFP (Homo sapiens, UniProt O60895+Q16602)
# T1 construct: EYFP; ECFP; expressed in transfected cells; host or cells: HEK-293 cells, transient co-transfection
# Test: cAMP assay (CRE luciferase reporter, HEK-293 cells transiently co-transfected with CLR and RAMP2)
# Assay type: cell-based
# Conditions: Table 2, cAMP assay; HEK-293, CLR/RAMP2, CRE luciferase, 3 h stimulation, normalized to [G^14]ADM(14-52)
# Method: HEK-293 cells (human embryonic kidney cells) were cultured in Ham's F-12/DMEM (1/1; v/v) containing 15% FCS under humidified atmosphere at 37° C. and 5% CO2 in 75 cm^2 cell culture flasks.
# Cells were cultured in 75 cm^2 flasks to 70-80% confluency. 45 μl Metafectene® Pro was diluted in 900 μl Ham's F-12/DMEM (1/1; v/v) and incubated for 20 min at room temperature. 9000 ng plasmid containing DNA of CLR fused to EYFP and 3000 ng plasmid containing DNA of RAMP2 fused to ECFP were dissolved in 900 μl Ham's F-12/DMEM (1/1; v/v). The plasmid solution was mixed with the Metafectene® Pro solution and incubated for 25 min at room temperature. Medium was removed from the cells and replaced by 6 ml Ham's F-12/DMEM (1/1; v/v) containing 15% FCS. After addition of transfection solution the cells were incubated for 3 h under humidified atmosphere at 37° C. and 5% CO2.
# For the second transfection 45 μl Metafectene® Pro was diluted in 900 μl Ham's F-12/DMEM (1/1; v/v) and incubated for 20 min at room temperature. 12000 ng of pGL4.29[luc2P/CRE/Hygro] plasmid containing DNA for the luciferase reporter gene luc2P (with CRE promotor region) were dissolved in 900 μl Ham's F-12/DMEM (1/1; v/v). The plasmid solution was mixed with the Metafectene® Pro solution and incubated for 25 min at room temperature. Medium was removed from the cells and replaced by 6 ml Ham's F-12/DMEM (1/1; v/v) containing 15% FCS. After addition of transfection solution the cells were incubated under humidified atmosphere at 37° C. and 5% CO2 over night.
# For the coating of 96-well-plates 50 μl of a Poly-D-Lysine solution (1 ml stock solution of Poly-D-Lysin-hydrobromid/10 ml DPBS) were pipetted in each well and incubated for 40 min. After removal of the Poly-D-Lysine each well was washed with 50 μl DPBS. Transiently transfected cells were detached from the cell culture flask by removal of the medium, twofold washing with 5 m1 DPBS and resuspending in 13 ml Ham's F-12/DMEM (1/1; v/v) containing 15% FCS. 90000 to 120000 cells in 150 μl Ham's F-12/DMEM (1/1; v/v) containing 15% FCS were seeded per well and the plates were incubated under humidified atmosphere at 37° C. and 5% CO2 over night.
# For each ligand a serial dilution giving eight different concentrations was prepared using Ham's F-12/DMEM (1/1; v/v). Before stimulation the medium on the cells was replaced by 100 μl Ham's F-12/DMEM (1/1; v/v) and the plates were incubated for 1 h under humidified atmosphere at 37° C. and 5% CO2. For stimulation the medium was removed again and the cells were incubated for 3 h in 80 μl of ligand-solution under humidified atmosphere at 37° C. and 5% CO2. In addition 80 μl of a 5 μM forskolin solution (in Ham's F-12/DMEM (1/1; v/v)) was used as a positive control and 80 μl of Ham's F-12/DMEM (1/1; v/v) as a negative control. Each concentration and the controls were tested as triplicates.
# After 3 h of stimulation, the solutions were removed and the cells were washed with 50 μl of Ham's F-12/DMEM (1/1; v/v) per well. After 10 min incubation in 30 μl of Ham's F-12/DMEM (1/1; v/v) at room temperature, 30 μl of luciferase-solution (ONE-Glo™ Luciferase Assay System) was added and the luminescence was directly measured using an Infinite M200 (Tecan).
# Data analysis of the luminescence measurement was carried out with GraphPad Prism 5. Therefore the measured luminescence values of each plate were first corrected on the base of the respective average of forskolin stimulation. Afterwards they were normalized to [G^14]ADM(14-52) which was used as standard peptide in every assay. After correction and normalization data was analysed using non-linear regression giving dose-response curves for each tested ligand.
# T1 sequence (Q16602 23-461): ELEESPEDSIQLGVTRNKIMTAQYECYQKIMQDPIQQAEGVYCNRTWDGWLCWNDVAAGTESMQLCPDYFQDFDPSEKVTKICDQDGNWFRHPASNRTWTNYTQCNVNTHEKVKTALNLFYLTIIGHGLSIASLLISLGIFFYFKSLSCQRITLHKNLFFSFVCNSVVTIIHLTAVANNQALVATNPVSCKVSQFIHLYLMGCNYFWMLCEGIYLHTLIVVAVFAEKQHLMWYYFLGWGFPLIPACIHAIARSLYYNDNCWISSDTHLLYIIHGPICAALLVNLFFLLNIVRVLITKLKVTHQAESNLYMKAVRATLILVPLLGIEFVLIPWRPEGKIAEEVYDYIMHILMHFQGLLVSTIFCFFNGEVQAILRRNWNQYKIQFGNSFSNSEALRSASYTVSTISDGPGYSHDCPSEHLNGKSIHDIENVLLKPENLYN
# T1 sequence (O60895 43-175): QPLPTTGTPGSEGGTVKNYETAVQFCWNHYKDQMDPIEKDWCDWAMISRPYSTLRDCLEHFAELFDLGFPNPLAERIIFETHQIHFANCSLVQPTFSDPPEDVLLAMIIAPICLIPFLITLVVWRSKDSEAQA
row,SMILES,EC50
1,"CC[C@H](C)[C@H](NC(=O)[C@H](CCC(N)=O)NC(=O)[C@H](Cc1c[nH]cn1)NC(=O)[C@H](C)NC(=O)[C@H](CC(C)C)NC(=O)[C@H](CCCCN)NC(=O)[C@H](CCC(N)=O)NC(=O)[C@@H](NC(=O)[C@@H](NC(=O)[C@@H]1CCNC(=O)C[C@H](NC(=O)CNC(=O)CN)C(=O)N[C@@H](CCCNC(=N)N)C(=O)N[C@@H](Cc2ccccc2)C(=O)NCC(=O)N[C@@H]([C@@H](C)O)C(=O)N1)[C@@H](C)O)C(C)C)C(=O)N[C@@H](Cc1ccc(O)cc1)C(=O)N[C@@H](CCC(N)=O)C(=O)N[C@@H](Cc1ccccc1)C(=O)N[C@H](C(=O)N[C@@H](CC(=O)O)C(=O)N[C@@H](CCCCN)C(=O)N[C@@H](CC(=O)O)C(=O)N[C@@H](CCCCN)C(=O)N[C@@H](CC(=O)O)C(=O)N[C@@H](CC(N)=O)C(=O)N[C@H](C(=O)N[C@@H](C)C(=O)N1CCC[C@H]1C(=O)N[C@@H](CCCNC(=N)N)C(=O)N[C@@H](CO)C(=O)N[C@@H](CCCCN)C(=O)N[C@H](C(=O)N[C@@H](CO)C(=O)N1CCC[C@H]1C(=O)N[C@@H](CCC(N)=O)C(=O)NCC(=O)N[C@@H](Cc1ccc(O)cc1)C(N)=O)[C@@H](C)CC)C(C)C)[C@@H](C)O [Example 4, ((2S,5S,11S,14S,20S)-20-(2-(2-aminoacetamido)acetamido)-5-benzyl-2-(3-guanidinopropyl)-11-((R)-1-hydroxyethyl)-3,6,9,12,18,21-hexaoxo-1,4,7,10,13,17-hexaazacyclohenicosane-14-carbonyl)-L-threonyl-ADM(22-52)] (H-GGDRFGT[Dab]TVQKLAHQIYQFTDKDKDNVAPRSKISPQGY-NH2; lactam 3-8)",21 nM
2,"CC[C@H](C)[C@H](NC(=O)[C@H](CCC(N)=O)NC(=O)[C@H](Cc1c[nH]cn1)NC(=O)[C@H](C)NC(=O)[C@H](CC(C)C)NC(=O)[C@H](CCCCN)NC(=O)[C@H](CCC(N)=O)NC(=O)[C@@H](NC(=O)[C@@H](NC(=O)[C@@H]1CCC(=O)NC[C@H](NC(=O)CNC(=O)CN)C(=O)N[C@@H](CCCNC(=N)N)C(=O)N[C@@H](Cc2ccccc2)C(=O)NCC(=O)N[C@@H]([C@@H](C)O)C(=O)N1)[C@@H](C)O)C(C)C)C(=O)N[C@@H](Cc1ccc(O)cc1)C(=O)N[C@@H](CCC(N)=O)C(=O)N[C@@H](Cc1ccccc1)C(=O)N[C@H](C(=O)N[C@@H](CC(=O)O)C(=O)N[C@@H](CCCCN)C(=O)N[C@@H](CC(=O)O)C(=O)N[C@@H](CCCCN)C(=O)N[C@@H](CC(=O)O)C(=O)N[C@@H](CC(N)=O)C(=O)N[C@H](C(=O)N[C@@H](C)C(=O)N1CCC[C@H]1C(=O)N[C@@H](CCCNC(=N)N)C(=O)N[C@@H](CO)C(=O)N[C@@H](CCCCN)C(=O)N[C@H](C(=O)N[C@@H](CO)C(=O)N1CCC[C@H]1C(=O)N[C@@H](CCC(N)=O)C(=O)NCC(=O)N[C@@H](Cc1ccc(O)cc1)C(N)=O)[C@@H](C)CC)C(C)C)[C@@H](C)O [Example 7, ((3S,9S,12S,15S,21S)-15-(2-(2-aminoacetamido)acetamido)-9-benzyl-12-(3-guanidinopropyl)-3-((R)-1-hydroxyethyl)-2,5,8,11,14,18-hexaoxo-1,4,7,10,13,17-hexaazacyclohenicosane-21-carbonyl)-L-threonyl-ADM(22-52)] (H-GG[Dap]RFGTETVQKLAHQIYQFTDKDKDNVAPRSKISPQGY-NH2; lactam 3-8)",2.9 nM
3,"CCCCCCCCCCCCCCCC(=O)NCCCC[C@H](N)C(=O)NCC(=O)N[C@H]1CCC(=O)NCCCC[C@@H](C(=O)N[C@H](C(=O)N[C@H](C(=O)N[C@@H](CCC(N)=O)C(=O)N[C@@H](CCCCN)C(=O)N[C@@H](CC(C)C)C(=O)N[C@@H](C)C(=O)N[C@@H](Cc2c[nH]cn2)C(=O)N[C@@H](CCC(N)=O)C(=O)N[C@H](C(=O)N[C@@H](Cc2ccc(O)cc2)C(=O)N[C@@H](CCC(N)=O)C(=O)N[C@@H](Cc2ccccc2)C(=O)N[C@H](C(=O)N[C@@H](CC(=O)O)C(=O)N[C@@H](CCCCN)C(=O)N[C@@H](CC(=O)O)C(=O)N[C@@H](CCCCN)C(=O)N[C@@H](CC(=O)O)C(=O)N[C@@H](CC(N)=O)C(=O)N[C@H](C(=O)N[C@@H](C)C(=O)N2CCC[C@H]2C(=O)N[C@@H](CCCNC(=N)N)C(=O)N[C@@H](CO)C(=O)N[C@@H](CCCCN)C(=O)N[C@H](C(=O)N[C@@H](CO)C(=O)N2CCC[C@H]2C(=O)N[C@@H](CCC(N)=O)C(=O)NCC(=O)N[C@@H](Cc2ccc(O)cc2)C(N)=O)[C@@H](C)CC)C(C)C)[C@@H](C)O)[C@@H](C)CC)C(C)C)[C@@H](C)O)NC(=O)[C@H]([C@@H](C)O)NC(=O)CNC(=O)[C@H](Cc2ccccc2)NC(=O)[C@H](CCCNC(=N)N)NC1=O [Example 12, ((2S,5S,11S,14S,23S)-23-(2-((S)-2-amino-6-palmitamidohexanamido)acetamido)-5-benzyl-2-(3-guanidinopropyl)-11-((R)-1-hydroxyethyl)-3,6,9,12,20,24-hexaoxo-1,4,7,10,13,19-hexaazacyclotetracosane-14-carbonyl)-L-threonyl-ADM(22-52)] (H-K(Palmitoyl)GERFGTKTVQKLAHQIYQFTDKDKDNVAPRSKISPQGY-NH2; lactam 3-8)",29 nM
4,"CC[C@H](C)[C@H](NC(=O)[C@H](CCC(N)=O)NC(=O)[C@H](Cc1c[nH]cn1)NC(=O)[C@H](C)NC(=O)[C@H](CC(C)C)NC(=O)[C@H](CCCCN)NC(=O)[C@H](CCC(N)=O)NC(=O)[C@@H](NC(=O)[C@@H](NC(=O)[C@@H]1CCC(=O)NCC[C@H](NC(=O)CNC(=O)CN)C(=O)N[C@@H](CCCNC(=N)N)C(=O)N[C@@H](Cc2ccccc2)C(=O)NCC(=O)N[C@@H]([C@@H](C)O)C(=O)N1)[C@@H](C)O)C(C)C)C(=O)N[C@@H](Cc1ccc(O)cc1)C(=O)N[C@@H](CCC(N)=O)C(=O)N[C@@H](Cc1ccccc1)C(=O)N[C@H](C(=O)N[C@@H](CC(=O)O)C(=O)N[C@@H](CCCCN)C(=O)N[C@@H](CC(=O)O)C(=O)N[C@@H](CCCCN)C(=O)N[C@@H](CC(=O)O)C(=O)N[C@@H](CC(N)=O)C(=O)N[C@H](C(=O)N[C@@H](C)C(=O)N1CCC[C@H]1C(=O)N[C@@H](CCCNC(=N)N)C(=O)N[C@@H](CO)C(=O)N[C@@H](CCCCN)C(=O)N[C@H](C(=O)N[C@@H](CO)C(=O)N1CCC[C@H]1C(=O)N[C@@H](CCC(N)=O)C(=O)NCC(=O)N[C@@H](Cc1ccc(O)cc1)C(N)=O)[C@@H](C)CC)C(C)C)[C@@H](C)O [Example 11, ((2S,5S,11S,14S,21S)-21-(2-(2-aminoacetamido)acetamido)-5-benzyl-2-(3-guanidinopropyl)-11-((R)-1-hydroxyethyl)-3,6,9,12,17,22-hexaoxo-1,4,7,10,13,18-hexaazacyclodocosane-14-carbonyl)-L-threonyl-ADM(22-52)] (H-GG[Dab]RFGTETVQKLAHQIYQFTDKDKDNVAPRSKISPQGY-NH2; lactam 3-8)",84 nM
